In patent publication US20230313318A1, “MICR[…] METHOD OF USE THEREOF” (priority 2022, published 2023):

Tested on: D. immitis GA III (susceptible isolate)
Set-up: species or system Dirofilaria immitis
Settings: in vivo

Substance: Milbemycin oxime [MBO]
- Number of GA III Worms: 0
- Percentage of GA III Worms (po): 0%
